Reference: ChEMBL document CHEMBL3352394, “Acinetobacter baumannii OxPhos inhibitors as selective anti-infective agents” (Bioorg Med Chem Lett, 2015)
In brackets after ≈: the same amount, converted by molar mass. Activity calls are given as the source filed them. The calls are words filed in the database; no cut-off is given here.

Legend:
Acinetobacter baumannii [1] = experiment: Antimicrobial activity against Acinetobacter baumannii; format: functional
[2] = Selectivity ratio of IC50 for oxidative phosphorylation system-mediated ATP synthesis in bovine heart submitochondrial particle to IC50 for oxidative phosphorylation system-mediated ATP synthesis in Acinetobacter baumannii membranes; format: cell membranes
[3] = Cytotoxicity against mouse NIH/3T3 cells after 1 hr by MTS reduction assay in absence of serum; format: cell-based; details: NIH3T3, 1 h
[4] = Inhibition of Electron transport protein complex-dependent oxidative phosphorylation system-mediated ATP synthesis in Acinetobacter baumannii membranes; format: cell membranes
HepG2 = experiment: Cytotoxicity against human HepG2 cells after 1 hr by MTS reduction assay in absence of serum; format: cell-based; details: HepG2, 1 h
[5] = Inhibition of Electron transport protein complex-dependent oxidative phosphorylation system-mediated ATP synthesis in bovine heart submitochondrial particle; parameters: species or system Bos taurus
Escherichia coli [6] = experiment: Antimicrobial activity against Escherichia coli ATCC 25922 in presence of 40% serum; format: functional
Acinetobacter baumannii [7] = experiment: Inhibition of NDH1-mediated O2 consumption in Acinetobacter baumannii membranes at 50 uM in presence of NADH; format: cell membranes
Escherichia coli [8] = experiment: Antimicrobial activity against Escherichia coli ATCC 25922; format: functional
Acinetobacter baumannii [9] = experiment: Bactericidal activity against Acinetobacter baumannii at 8 times IC50 by time-kill assay; format: functional, organism-based
Staphylococcus aureus [10] = experiment: Antimicrobial activity against Staphylococcus aureus ATCC 25923; format: functional
[11] = Half life in mouse liver microsomes; format: ADME
Acinetobacter baumannii [12] = experiment: Inhibition of NDH1-mediated O2 consumption in Acinetobacter baumannii membranes at 50 to 100 uM in presence of succinate; format: cell membranes
Acinetobacter baumannii [13] = experiment: Antimicrobial activity against Acinetobacter baumannii BAA-1606; format: functional
Pseudomonas aeruginosa = experiment: Antimicrobial activity against Pseudomonas aeruginosa ATCC 10145; format: functional
Klebsiella pneumoniae [14] = experiment: Antimicrobial activity against Klebsiella pneumoniae ATCC 13883; format: functional
Staphylococcus aureus [15] = experiment: Antimicrobial activity against methicillin-resistant Staphylococcus aureus USA 300; format: functional
Acinetobacter baumannii [16] = experiment: Inhibition of NDH1-mediated O2 consumption in Acinetobacter baumannii membranes at 50 uM in presence of NADH and ascorbate/TMPD; format: cell membranes
[17] = Half life in human liver microsomes; format: ADME
Acinetobacter baumannii [18] = experiment: Antimicrobial activity against Acinetobacter baumannii ATCC 17978; format: functional
Klebsiella pneumoniae [19] = experiment: Antimicrobial activity against Klebsiella pneumoniae ATCC 4352; format: functional
Klebsiella pneumoniae [20] = experiment: Antimicrobial activity against Klebsiella pneumoniae ATCC 13883 in presence of 40% serum; format: functional

Molecule | MIC (Acinetobacter baumannii [1]) | Ratio IC50 [2] | IC50 [3] | IC50 [4] | IC50 (HepG2) | IC50 [5] | further results
Cc1noc(C)c1Cn1c(=N)n(CCCOc2ccc(Cl)cc2Cl)c2ccccc21 | 100 µM (≈ 44.5 µg/mL) | 3.2 | 94 µM | 1.9 µM | 168 µM | 6.1 µM | –
N=c1n(CCCOc2ccc(Cl)cc2Cl)c2ccccc2n1CCN1CCCC1 | 13 µM (≈ 5.63 µg/mL) | 2.3 | 12 µM | 2.1 µM | 67 µM | 4.9 µM | –
CCN(CC)CCCNc1nc2ccccc2n1CCCOc1ccc(Cl)cc1Cl | 50 µM (≈ 22.5 µg/mL) | 2.5 | – | 8 µM | – | 20 µM | –
CCN(CC)CCn1c(=O)n(CC(O)COc2ccc(Cl)cc2Cl)c2ccccc21 (configuration not stated) | > 100 µM | 1.8 | – | 12 µM | – | 21 µM | –
CCN(CC)C(=O)Cn1c(=N)n(CCCOc2ccc(Cl)cc2Cl)c2ccccc21 | > 100 µM | 1.9 | 68 µM | 6 µM | 143 µM | 11.4 µM | –
Br.CCN(CC)CCn1c(=N)n(CCCOc2ccc(Cl)cc2Cl)c2ccccc21 | 13 µM | 3 | 20 µM | 0.61 µM | 83 µM | 2.9 µM | MIC (Escherichia coli [6]): > 22 µg/mL; inhibition (Acinetobacter baumannii [7]): Active; MIC (Escherichia coli [8]): 11 µg/mL; Activity (Acinetobacter baumannii [9]): Active; MIC (Staphylococcus aureus [10]): 11 µg/mL; half-life [11]: 13 min; inhibition (Acinetobacter baumannii [12]): inactive; MIC (Acinetobacter baumannii [13]): 12.5 µg/mL; MIC (Pseudomonas aeruginosa): > 22 µg/mL; MIC (Klebsiella pneumoniae [14]): 22 µg/mL; MIC (Staphylococcus aureus [15]): 5 µg/mL; inhibition (Acinetobacter baumannii [16]): inactive; half-life [17]: 9.2 min; MIC (Acinetobacter baumannii [18]): 12.5 µg/mL; MIC (Klebsiella pneumoniae [19]): 5 µg/mL; MIC (Klebsiella pneumoniae [20]): > 22 µg/mL
CCN(CC)CCn1c(=N)n(CC(O)COc2ccc(Cl)cc2Cl)c2ccccc21 (configuration not stated) | 25 µM (≈ 11.3 µg/mL) | – | – | 1.9 µM | – | 5.6 µM | inhibition (Acinetobacter baumannii [7]): Active; Activity (Acinetobacter baumannii [9]): Active
CCN(CC)CCn1c(N)nc2ccccc21 | > 100 µM | 2.5 | – | 40 µM | – | 100 µM | –
CCCCn1c(=N)n(CCCOc2ccc(Cl)cc2Cl)c2ccccc21 | 50 µM (≈ 19.6 µg/mL) | 0.5 | 28 µM | 3.8 µM | 72 µM | 1.8 µM | –
Nc1nc2ccccc2n1CCCOc1ccc(Cl)cc1Cl | 25 µM (≈ 8.41 µg/mL) | 0.9 | – | 0.9 µM | – | 0.8 µM | MIC (Acinetobacter baumannii [13]): 6.25 µg/mL (≈ 18.6 µM); MIC (Acinetobacter baumannii [18]): 6.25 µg/mL (≈ 18.6 µM)
CCN(CC)CCn1c(=N)n(CCOc2ccc(Cl)cc2Cl)c2ccccc21 | 100 µM (≈ 42.1 µg/mL) | 2.7 | – | 6.9 µM | – | 18.3 µM | Activity (Acinetobacter baumannii [9]): Active
OC(CNCc1nc2ccccc2[nH]1)COc1ccc(Cl)cc1Cl (configuration not stated) | > 100 µM | 2.6 | – | 41 µM | – | 106 µM | –
N=c1n(CCCOc2ccc(Cl)cc2Cl)c2ccccc2n1CC(=O)N1CCN(c2ccccc2)CC1.O=C(O)C(F)(F)F | > 100 µM | 0.8 | 400 µM | 1 µM | 1300 µM | 0.8 µM | half-life [11]: 25.2 min
N=c1n(CCCOc2ccc(Cl)cc2Cl)c2ccccc2n1CCn1ccnc1 | > 100 µM | 2.7 | 61 µM | 18.3 µM | 137 µM | 49.7 µM | –
COLISTIN | – | – | – | – | – | – | MIC90 (Acinetobacter baumannii [1]): 2 µg/mL
N=c1n(CCCOc2ccc(Cl)cc2Cl)c2ccccc2n1CCN1CCCC1=O | > 100 µM | 0.9 | 99 µM | 3.6 µM | 63 µM | 3.1 µM | –
CCN(CC)CCNc1nc2ccccc2n1CC(O)COc1ccc(Cl)cc1Cl (configuration not stated) | > 100 µM | 9.4 | – | 5 µM | – | 47 µM | –
CC(C)N(CCn1c(=N)n(CCCOc2ccc(Cl)cc2Cl)c2ccccc21)C(C)C | 13 µM (≈ 6.02 µg/mL) | 1.5 | 19 µM | 1.7 µM | 39 µM | 2.5 µM | –
N=c1n(CCCOc2ccc(Cl)cc2Cl)c2ccccc2n1CCCN1CCCCC1 | 50 µM (≈ 23.1 µg/mL) | 6.2 | 37 µM | 3.6 µM | 83 µM | 22.4 µM | –
CC(C)(C)OC(=O)N1CCC(CCn2c(=N)n(CCCOc3ccc(Cl)cc3Cl)c3ccccc32)CC1 | 50 µM (≈ 27.4 µg/mL) | 0.6 | 25 µM | 1.7 µM | 42 µM | 1 µM | –
CCN(CC)CCn1c(=N)n(CCCc2ccc(Cl)cc2Cl)c2ccccc21 | 25 µM (≈ 10.5 µg/mL) | 1.9 | – | 5 µM | – | 9.4 µM | Activity (Acinetobacter baumannii [9]): Active
CCOCCOCCn1c(=N)n(CCCOc2ccc(Cl)cc2Cl)c2ccccc21 | > 100 µM | 1.1 | 62 µM | 5.6 µM | 151 µM | 6 µM | –
CCN(CC)CCCNc1nc2ccccc2n1CC(O)COc1ccc(Cl)cc1Cl (configuration not stated) | > 100 µM | 1.3 | – | 10 µM | – | 13 µM | –
CCn1c(=N)n(CCCOc2ccc(Cl)cc2Cl)c2ccccc21 | 50 µM (≈ 18.2 µg/mL) | 1.4 | 24 µM | 6.4 µM | 96 µM | 8.8 µM | –
N=c1n(CCCOc2ccc(Cl)cc2Cl)c2ccccc2n1CCN1CCOCC1 | > 100 µM | 2.8 | 76 µM | 9.2 µM | 215 µM | 25.5 µM | –
N=c1n(CCCOc2ccc(Cl)cc2Cl)c2ccccc2n1CCc1ccccn1 | 100 µM (≈ 44.1 µg/mL) | 2.1 | 36 µM | 3.2 µM | 60 µM | 6.6 µM | –
OC(COc1ccc(Cl)cc1Cl)Cn1c(NCCCN2CCOCC2)nc2ccccc21 (configuration not stated) | > 100 µM | 1.2 | – | 7.8 µM | – | 9.6 µM | –
N=c1n(CCCOc2ccc(Cl)cc2Cl)c2ccccc2n1CCCc1ccccc1.O=C(O)C(F)(F)F | 25 µM | 1.1 | 36 µM | 2.1 µM | 65 µM | 2.2 µM | half-life [11]: 48.2 min
N=c1n(CCCOc2ccc(Cl)cc2Cl)c2ccccc2n1Cc1ccc(C(F)(F)F)nc1.O=C(O)C(F)(F)F | 50 µM | 1 | 22 µM | 0.9 µM | 35 µM | 0.9 µM | half-life [11]: > 90 min
CCCN(CCC)CCn1c(=N)n(CCCOc2ccc(Cl)cc2Cl)c2ccccc21 | 25 µM (≈ 11.6 µg/mL) | 1 | 28 µM | 2.8 µM | 49 µM | 2.9 µM | –
